Patent US20210220320A1, “ANALGESIC AGENT AND SEDATIVE AGENT” (THE UNIVERSITY OF TOKYO, priority 2018, published 2021)

Key:
[1] = tested on: sciatic nerve ligation (CCI) mouse; experiment: Sciatic nerve ligation (CCI) model, plantar test of pain threshold for heat; type: in vivo; details: 40 mg/kg intraperitoneally, plantar test 30 min after administration; p<0.01 (FIG. 2)
Source text: Since central sensitization was known to be involved in the second phase pain response in the formalin test, DSF was expected to also exert its effects on neuropathic pain. […] Thus, the sciatic nerve ligation (CCI) model, which is commonly used as a neuropathic pain mouse model, was used to evaluate the efficacy of DSF. In the sciatic nerve ligation (CCI) mouse group, a femoral region of each mouse was cut open and the muscle layer was removed to expose the sciatic nerve, and the sciatic nerve was ligated with 6-0 silk sutures at three positions spaced 1 mm apart, and the incision was then closed. In contrast, each mouse in the sham operation (Sham) group was subjected to the same operation till the muscle layer was removed, and the incision was then closed without ligating the exposed sciatic nerve. On one week postsurgery or later, the planter test was performed to evaluate the pain threshold for heat, which was a stimulus not associated with stimulant administration, in those mice. DSF was administered intraperitoneally to mice in the CCI DSF group at a dose of 40 mg/kg. The solvent control (a solution of 10% DMSO and 2% Tween-80) was administered instead of DSF to mice in the CCI control group. The plantar test was performed 30 minutes after administration.

[2] = tested on: mice subjected to the formalin test; experiment: Formalin test (inflammatory pain model), pain behavior in mice; type: in vivo, mouse
Description: The formalin test, which is an inflammatory pain model and is commonly used as a neuropathic pain model in a broad sense, was used to evaluate the pain-inhibiting effect of disulfiram (DSF).
In the formalin test, each mouse was placed in a transparent container for 30 minutes for acclimation to the analysis environment. Thereafter, a test drug or a solvent control (a solution of 10% DMSO and 2% Tween-80) was administered intraperitoneally to each mouse, and 30 minutes later, 20 μL of 1% formalin was injected subcutaneously from the palmar surface of the right hind paw to observe pain behavior in each mouse. The duration (sec.) of paw lifting and paw licking was used as a measured value of intensity of pain.
The formalin test is one of the commonly used models that are used as pain models to evaluate analgesic effects. A biphasic pain-like behavior is observed in the formalin test; the first response appears within 5 minutes and disappears till 10 minutes after the administration of formalin, and the second response is a response that reappears within 10 to 15 minutes after the administration of formalin (FIG. 1A).
DSF is metabolized in the body to generate diethyldithiocarbamate (DDC). The analgesic effects of metal complexes of DDC, which are considered to generate DDC in the body as well as DSF, was evaluated by the formalin test. The formalin test was performed in the same manner as in the above-described section 1. except that a copper complex of DDC (Cu(DDC)2) and an iron(III) complex of DDC (Fe(DDC)3) were used as test drugs. Either of the complexes was administered to mice at a dose of 40 mg/kg.

CCN(CC)C(=S)SSC(=S)N(CC)CC [DSF, tetraethylthiuram disulfide]
reduction in pain threshold associated with sciatic nerve ligation (CCI) [1]: prevented to a significant degree
analgesic effect (suppression of the second response) at 10 mg/kg ([2]; 10 mg/kg intraperitoneally, versus solvent control (FIG. 1C)): significant analgesic effects
suppression of the second response (pain score) in the formalin test ([2]; 40 mg/kg intraperitoneally, 30 min before 1% formalin, p<0.001 (FIG. 1B)): strongly suppressed
dose dependency of suppression of the second response relative to solvent control (100%) ([2]; DSF dose groups, intraperitoneal (FIG. 1C)): analgesic effects in a dose-dependent manner
analgesic effect compared with existing analgesics (pregabalin, loxoprofen, aspirin), suppression of the second response ([2]; all drugs at a fixed dose of 40 mg/kg (FIG. 1D)): stronger analgesic effects than all of the tested existing analgesics
sedative effect (behavior of treated mice) ([2]; mice in the formalin test after intraperitoneal administration): behaved more quietly
